Earlier results, collected in patent publication US11747352B2 (Concordia University, Inc., priority 2017, dated 2023).
Where two headings read alike, the source gives them in different places.

Assays:
[1] = cited from earlier work; for F %: Table of Tyrosine Kinase Inhibitor Substrates, CYP3A4
[2] = test system: plasma protein; details: cited from earlier work; for Protein binding %: Table of Tyrosine Kinase Inhibitor Substrates
[3] = cited from earlier work; for T½: Table of Tyrosine Kinase Inhibitor Substrates
[4] = test system: CYP3A; details: cited from earlier work
[5] = molecular target: CYP3A5 (Homo sapiens, UniProt P20815); details: cited from earlier work
Chain of CYP3A5 (P20815 whole entry): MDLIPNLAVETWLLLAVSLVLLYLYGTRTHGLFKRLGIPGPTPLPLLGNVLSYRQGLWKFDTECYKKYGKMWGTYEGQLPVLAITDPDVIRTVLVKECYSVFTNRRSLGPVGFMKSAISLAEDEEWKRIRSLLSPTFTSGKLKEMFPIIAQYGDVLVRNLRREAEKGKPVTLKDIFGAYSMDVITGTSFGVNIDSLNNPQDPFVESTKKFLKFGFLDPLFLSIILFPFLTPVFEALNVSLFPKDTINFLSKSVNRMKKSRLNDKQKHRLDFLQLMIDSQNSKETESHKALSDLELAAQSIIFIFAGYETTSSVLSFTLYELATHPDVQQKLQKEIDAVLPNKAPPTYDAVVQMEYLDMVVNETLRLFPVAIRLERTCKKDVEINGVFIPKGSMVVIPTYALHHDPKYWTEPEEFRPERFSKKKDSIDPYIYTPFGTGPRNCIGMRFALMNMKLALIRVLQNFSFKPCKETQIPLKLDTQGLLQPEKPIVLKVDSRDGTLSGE

Structure (SMILES): CC(C)(O)c1ccccc1CC[C@@H](SCC1(CC(=O)O)CC1)c1cccc(/C=C/c2ccc3ccc(Cl)cc3n2)c1 [Montelukast]
- ORAL BIOAVAILABILITY ([1]; Table CYP2C9): 64-73% ^
- PLASMA PROTEIN BINDING ([2]; Table CYP2C9): >99%
- HALF LIFE ([3]; Table CYP2C9): 2.7 to 5.5 h

Structure (SMILES): OC(CNCC(O)C1CCc2cc(F)ccc2O1)C1CCc2cc(F)ccc2O1 (stereo not drawn) [Nebivolol]
- ORAL BIOAVAILABILITY ([1]; Table CYP2D6): 12-96% ^
- HALF LIFE ([3]; Table CYP2D6): 12 to 19 h

Structure (SMILES): Cc1ccnc2c1NC(=O)c1cccnc1N2C1CC1 [Nevirapine]
- ORAL BIOAVAILABILITY ([1]; Table CYP3A4): 80-94% ^

Structure (SMILES): COc1ccc2c3c1O[C@H]1C(=O)CC[C@@]4(O)[C@@H](C2)N(C)CC[C@]314 [Oxycodone]
- ORAL BIOAVAILABILITY ([1]; Table CYP2D6): 60-87% ^
- ORAL BIOAVAILABILITY ([1]; Table CYP3A4): 60-87% ^

Structure (SMILES): [H]/N=C(/N)N/C(=N/[H])NCCc1ccccc1 [Phenformin]
- ORAL BIOAVAILABILITY ([1]; Table CYP2D6): 40-60% ^
- HALF LIFE ([3]; Table CYP2D6): 4 to 13 h

Structure (SMILES): O=C1NC(=O)C(c2ccccc2)(c2ccccc2)N1 [Phenytoin]
- ORAL BIOAVAILABILITY ([1]; Table CYP2C9): 20-90% ^
- HALF LIFE ([3]; Table CYP2C9): 14 to 22 h

Structure (SMILES): CC(=O)[C@H]1CC[C@H]2[C@@H]3CCC4=CC(=O)CC[C@]4(C)[C@H]3CC[C@]12C [Progesterone]
- PLASMA PROTEIN BINDING ([2]; Table CYP2C19): 96-99% ^

Structure (SMILES): CC(C)NCC(O)COc1cccc2ccccc12 (stereo not drawn) [Propranolol]
- ORAL BIOAVAILABILITY ([1]; Table CYP2D6): 30-70% ^
- HALF LIFE ([3]; Table CYP2D6): 3 to 6 h

Structure (SMILES): Fc1ccccc1C1=NCC(=S)N(CC(F)(F)F)c2ccc(Cl)cc21 [Quazepam]
- ORAL BIOAVAILABILITY ([1]; Table CYP3A4): 29-35% ^

Structure (SMILES): C=C[C@H]1C[N@@]2CC[C@H]1C[C@@H]2[C@@H](O)c1ccnc2ccc(OC)cc12 [Quinidine]
- ORAL BIOAVAILABILITY ([1]; Table CYP3A4): 70-80% ^
- All CYP3A (% Metabolism) [4]: 93%

Structure (SMILES): C=C[C@H]1C[N@@]2CC[C@H]1C[C@H]2[C@H](O)c1ccnc2ccc(OC)cc12 [Quinine]
- ORAL BIOAVAILABILITY ([1]; Table CYP3A4): 76-88% ^

Structure (SMILES): CCOc1cc(CC(=O)N[C@@H](CC(C)C)c2ccccc2N2CCCCC2)ccc1C(=O)O [Repaglinide]
- ORAL BIOAVAILABILITY ([1]; Table CYP3A4): 55%

Structure (SMILES): CCCN1CCCC[C@H]1C(=O)Nc1c(C)cccc1C [Ropivacaine]
- ORAL BIOAVAILABILITY ([1]; Table CYP1A2, printed as IV): 87-98% - IV
- HALF LIFE ([3]; Table CYP1A2): 5 to 7 h

Structure (SMILES): CC(C)(C)NC(=O)[C@@H]1C[C@@H]2CCCC[C@@H]2CN1C[C@@H](O)[C@H](Cc1ccccc1)NC(=O)[C@H](CC(N)=O)NC(=O)c1ccc2ccccc2n1 [Saquinavir]
- All CYP3A (% Metabolism) [4]: 99%
- CYP3A5 (% Metabolism) [5]: 11%

Structure (SMILES): CO[C@H]1C[C@@H]2CC[C@@H](C)[C@@](O)(O2)C(=O)C(=O)N2CCCC[C@H]2C(=O)O[C@H]([C@H](C)C[C@@H]2CC[C@@H](O)[C@H](OC)C2)CC(=O)[C@H](C)/C=C(\C)[C@@H](O)[C@@H](OC)C(=O)[C@H](C)C[C@H](C)/C=C/C=C/C=C/1C [Sirolimus]
- ORAL BIOAVAILABILITY ([1]; Table CYP3A4): 14-27% ^

Structure (SMILES): CCN(CC)CCNC(=O)c1c(C)[nH]c(/C=C2\C(=O)Nc3ccc(F)cc32)c1C [Sunitinib]
- F % [1]: 50%
- Protein binding % [2]: 95%
- T½ [3]: 40 to 60 h

Structure (SMILES): CCCCCc1cc(O)c2c(c1)OC(C)(C)[C@@H]1CCC(C)=C[C@@H]21 [THC]
- ORAL BIOAVAILABILITY ([1]; Table CYP2C9): 10-35% ^
- HALF LIFE ([3]; Table CYP2C9): 1.6 to 59 h

Structure (SMILES): CC[C@@H](c1cccc(O)c1)[C@@H](C)CN(C)C [Tapentadol]
- HALF LIFE ([3]; Table CYP2C9): 4 to 5 h
- HALF LIFE ([3]; Table CYP2D6): 4 to 5 h

Structure (SMILES): CN(C/C=C/C#CC(C)(C)C)Cc1cccc2ccccc12 [Terbinafine]
- HALF LIFE ([3]; Table CYP2C9): 22 to 26 h

Structure (SMILES): Cn1c(=O)c2[nH]cnc2n(C)c1=O [Theophylline]
- HALF LIFE ([3]; Table CYP1A2): 1.5 to 9.8 h

Structure (SMILES): CSc1ccc2c(c1)N(CCC1CCCCN1C)c1ccccc1S2 (stereo not drawn) [Thioridazine]
- HALF LIFE ([3]; Table CYP2D6): 21 to 24 h

Structure (SMILES): CCCCNC(=O)NS(=O)(=O)c1ccc(C)cc1 [Tolbutamide]
- HALF LIFE ([3]; Table CYP2C9): 4.5 to 6.5 h

Structure (SMILES): Cc1cccc(Nc2ccncc2S(=O)(=O)NC(=O)NC(C)C)c1 [Torasemide]
- HALF LIFE ([3]; Table CYP2C9): 2.2 to 3.8 h

Structure (SMILES): COc1cccc(C2(O)CCCCC2CN(C)C)c1 (stereo not drawn) [Tramadol]
- HALF LIFE ([3]; in vivo): 5.5 to 6.7 h

Structure (SMILES): CN1[C@@H]2CC[C@H]1C[C@@H](OC(=O)c1c[nH]c3ccccc13)C2 [Tropisetron]
- HALF LIFE ([3]; Table CYP2D6): 5.6 to 8.6 h

Structure (SMILES): CCCc1nc(C)c2c(=O)[nH]c(-c3cc(S(=O)(=O)N4CCN(CC)CC4)ccc3OCC)nn12 [Vardenafil]
- ORAL BIOAVAILABILITY ([1]; Table CYP3A4): 15-44% ^

Structure (SMILES): CC(c1cc2ccccc2s1)N(O)C(N)=O (stereo not drawn) [Zileuton]
- HALF LIFE ([3]; Table CYP1A2): 2.5 to 3.2 h

Structure (SMILES): CN(C)CCc1c[nH]c2ccc(C[C@H]3COC(=O)N3)cc12 [Zolmirripran]
- ORAL BIOAVAILABILITY ([1]; Table of Exemplary Drugs, CYP1A2): ~40%

Structure (SMILES): Cc1ccc(Nc2nccc(N(C)c3ccc4c(C)n(C)nc4c3)n2)cc1S(N)(=O)=O [pazopanib]
- F % [1]: 14-21%
- Protein binding % [2]: >99.5%
- T½ [3]: 30.9 to 31.9 h

Structure (SMILES): CNC(=O)c1cc(Oc2ccc(NC(=O)Nc3ccc(Cl)c(C(F)(F)F)c3)cc2)ccn1 [sorafenib]
- F % [1]: 38-49%
- Protein binding % [2]: 99.5%
- T½ [3]: 25 to 48 h
